The text below walks through data of ChEMBL document CHEMBL5325400 (Eur J Med Chem, 2023).

The test system of data set [1] is SK-OV-3. Put plainly: Antiproliferative activity against human SK-OV-3 cells assessed as inhibition of cell growth measured after 48 hrs by MTT assay. It counts as functional, cell-based. Conditions: SK-OV-3, 48 h. For orientation: Tetrazolium dyes change colour on reduction, which living cells bring about.
Data set [2] deals with HepG2. The data set is described as follows: Antiproliferative activity against human HepG2 cells assessed as inhibition of cell growth measured after 48 hrs by MTT assay. It counts as functional, cell-based. The note with it: HepG2, 48 h.
Data set [3] deals with MDA-MB-231. Put plainly: Antiproliferative activity against human MDA-MB-231 cells assessed as inhibition of cell growth measured after 48 hrs by MTT assay. The data set is classed as functional, cell-based. The note with it: MDA-MB-231, 48 h.
Data set [4] has as its system HeLa. Put plainly: Antiproliferative activity against human HeLa cells assessed as inhibition of cell growth measured after 48 hrs by MTT assay. The data set is classed as functional, cell-based.
Data set [5] relates to B16-F10. Put plainly: Antiproliferative activity against mouse B16-F10 cells assessed as inhibition of cell growth measured after 48 hrs by MTT assay. The data set is classed as functional, cell-based. The note with it: B16-F10, 48 h.
For data set [6], the system named is A549. The data set is described as follows: Antiproliferative activity against human A549 cells assessed as inhibition of cell growth measured after 48 hrs by MTT assay. It counts as functional, cell-based. The note with it: A549, 48 h.
The test system of data set [7] is A549. The data set is described as follows: Antiproliferative activity against human A549 cells expressing lentivirus RNAi VTI-96658 assessed as inhibition of cell growth measured after 48 hrs by MTT assay. It counts as functional, cell-based.
Data set [8] relates to A549. The data set is described as follows: Antiproliferative activity against human A549 cells expressing lentivirus RNAi VTI-96659 assessed as inhibition of cell growth measured after 48 hrs by MTT assay. The data set is classed as functional, cell-based.
For data set [9], the system named is A549. The data set is described as follows: Antiproliferative activity against human A549 cells expressing lentivirus RNAi VTI-96660 assessed as inhibition of cell growth measured after 48 hrs by MTT assay. It counts as functional, cell-based.
The target in data set [10] is Tubulin (Sus scrofa) (UniProt P02554+P02550). Put plainly: Inhibition of porcine brain tubulin polymerization at 10 uM measured at 1 min interval for 60 mins by fluorescence based analysis.
Chain of Tubulin (Sus scrofa) (P02550 whole entry, looked up): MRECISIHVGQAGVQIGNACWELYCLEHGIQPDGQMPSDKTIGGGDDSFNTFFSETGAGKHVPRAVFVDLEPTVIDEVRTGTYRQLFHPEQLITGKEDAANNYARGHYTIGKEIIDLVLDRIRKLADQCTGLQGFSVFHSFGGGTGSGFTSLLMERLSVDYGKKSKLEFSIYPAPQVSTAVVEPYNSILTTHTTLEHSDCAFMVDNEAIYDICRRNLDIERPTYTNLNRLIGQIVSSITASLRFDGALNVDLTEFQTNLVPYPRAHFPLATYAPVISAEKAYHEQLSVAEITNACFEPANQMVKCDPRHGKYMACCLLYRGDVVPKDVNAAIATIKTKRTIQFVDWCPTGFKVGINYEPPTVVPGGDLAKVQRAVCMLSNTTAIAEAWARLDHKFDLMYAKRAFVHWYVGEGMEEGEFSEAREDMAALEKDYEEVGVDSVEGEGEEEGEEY
Chain of Tubulin (Sus scrofa) (P02554 whole entry, looked up): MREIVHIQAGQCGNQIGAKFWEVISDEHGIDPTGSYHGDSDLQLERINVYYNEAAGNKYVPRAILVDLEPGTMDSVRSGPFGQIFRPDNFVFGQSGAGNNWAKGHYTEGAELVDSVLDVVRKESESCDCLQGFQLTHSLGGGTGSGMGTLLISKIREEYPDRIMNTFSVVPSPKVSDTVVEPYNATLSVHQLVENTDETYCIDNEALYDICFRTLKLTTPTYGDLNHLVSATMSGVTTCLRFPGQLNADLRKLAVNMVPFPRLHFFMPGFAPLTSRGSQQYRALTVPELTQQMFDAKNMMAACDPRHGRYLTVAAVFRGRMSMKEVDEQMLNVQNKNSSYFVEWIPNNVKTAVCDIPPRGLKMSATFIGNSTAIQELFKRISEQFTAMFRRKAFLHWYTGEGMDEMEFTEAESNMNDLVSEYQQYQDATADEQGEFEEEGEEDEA
Data set [11] deals with A2780/Taxol. Put plainly: Antiproliferative activity against paclitaxel resistant human A2780/Taxol cells assessed as inhibition of cell growth incubated for 48 hrs by MTT assay. The data set is classed as functional, cell-based.
Data set [12] deals with A549. Put plainly: Antitumor activity against human A549 cells xenografted in BALB/c mouse assessed as tumor growth inhibition at 10 mg/kg, ip administered every other day for 25 days. The data set is classed as functional. The note with it: A549, 600 h, time 25 day, read-out: TGI.
In data set [13] the test system is A549. The data set is described as follows: Antitumor activity against human A549 cells xenografted in BALB/c mouse assessed as tumor volume at 10 mg/kg, ip administered every other day for 25 days. It counts as functional. The note with it: time 25 day. For orientation: In xenograft studies the graft and the host belong to different species.
For data set [14], the system named is A549. Put plainly: Antitumor activity against human A549 cells xenografted in BALB/c mouse assessed as tumor weight at 10 mg/kg, ip administered every other day for 25 days. The note with it: time 25.0 day. It counts as functional, organism-based.
The nature of data set [15]: Toxicity in BALB/c mouse xenografted with human A549 cells assessed as change in body weight at 10 mg/kg, ip administered every other day for 25 days. Conditions: in vivo, 600 h, time 25 day. The data set is classed as organism-based.
Data set [16] relates to A2780. Put plainly: cells. The note with it: Homo sapiens, A2780, 48 h.
Description: Antiproliferative activity against human A2780 cells assessed as inhibition of cell growth incubated for 48 hrs by MTT assay

As a reminder, the IC50 is the concentration needed to halve the response being measured.

Active and inactive are the calls of the source. The calls are words filed in the database; no cut-off is given here.

Regarding `O=C(Nc1cccc(Nc2cc(Nc3cccc(C(F)(F)F)c3)ncn2)c1)C1CC1`, the IC50 in data set [1] is 63.2 nM; in data set [2], 28.5 nM; in [3], 45.3 nM; in data set [4], 83.4 nM; in data set [5], 60.7 nM; in [6], 84.1 nM. Further, the result in data set [7], in data set [8] and in data set [9] was Active. The inhibition result in data set [10] is “Active”.

Turning to `CC(=O)O[C@H]1C(=O)[C@@]2(C)[C@H]([C@H](OC(=O)c3ccccc3)[C@]3(O)C[C@H](OC(=O)[C@H](O)[C@@H](NC(=O)c4ccccc4)c4ccccc4)C(C)=C1C3(C)C)[C@]1(OC(C)=O)CO[C@@H]1C[C@@H]2O` [PACLITAXEL], the IC50 in data set [1] was 34.5 nM; in data set [2], 2.5 nM; in data set [3], 1.1 nM; in data set [5] it was above 1000 nM; in data set [6] it was 3.8 nM; in data set [11], 17900 nM. The inhibition result in [10] was “inactive”. Moreover, in [12], the inhibition in vivo at 10 mg/kg was found to be 48.6%. In addition, the Activity in data set [13] is 46.53%; in data set [15] it was “Non-Toxic”. Also, in data set [14], the result was Active.

With `COc1cc2c(c(OC)c1OC)-c1ccc(OC)c(=O)cc1[C@@H](NC(C)=O)CC2` [COLCHICINE], the IC50 was 7.2 nM in data set [1]; 83.7 nM in [2]; 67.4 nM in data set [3]; 33.5 nM in data set [4]; 29.2 nM in [5]; 253 nM in [11]. The compound further displayed an IC50 in data set [16] of 20 nM.

`CCOc1cccc(Nc2cc(Nc3cccc(NC(=O)C4CC4)c3)ncn2)c1`: the IC50 in [1] was found to be 17.4 nM; in data set [2], 128 nM; in data set [3], 1.9 nM; in [4] it was 613 nM; in [5] it was 20.7 nM; in data set [6] it was 173 nM.

In the case of `COc1cc(Nc2cc(Nc3cccc(NC(=O)C4CC4)c3)ncn2)ccc1F`, the IC50 is 42.7 nM in [1]; 342 nM in data set [2]; 107 nM in [3]; 65.9 nM in [4]; 199 nM in [5]; 218 nM in data set [6].

`CCc1cccc(Nc2cc(Nc3cccc(NC(=O)C4CC4)c3)ncn2)c1`: the IC50 in data set [1] was found to be 1.9 nM; in data set [2] it was 314 nM; in data set [3], 3.1 nM; in [4], 3.2 nM; in data set [5], 46.6 nM; in [6] it was 23.4 nM.

As to `COc1ccc(C)c(Nc2cc(Nc3cccc(NC(=O)C4CC4)c3)ncn2)c1`, the IC50 in data set [1] worked out at 56.9 nM; in data set [2], 35.2 nM; in data set [3] it was 48.8 nM; in data set [4], 17.9 nM; in data set [5], 2.3 nM; in data set [6], 2 nM.

With `COc1cccc(Nc2nc(Nc3cccc(NC(=O)C4CC4)c3)c3ccccc3n2)c1`, the IC50 in data set [1], in [2], in data set [3], in data set [4], in data set [5] and in [6] was above 1000 nM in each case.

For `COc1cccc(Nc2cc(Nc3cccc(NC(=O)C(C)(C)C)c3)ncn2)c1`, the IC50 in data set [1], in data set [2], in data set [3], in data set [4], in data set [5] and in [6] was above 1000 nM in each case.

For `COc1cccc(Nc2cc(Nc3cccc(C(=O)NC4CC4)c3)ncn2)c1`, the half-inhibitory concentration (IC50) in data set [1], in data set [2], in [3], in [4], in [5] and in data set [6] was above 1000 nM in each case.

As to `COc1cccc(Nc2nc(Nc3cccc(NC(=O)C4CC4)c3)c3ccsc3n2)c1`, the IC50 in [1], in [2], in [3], in data set [4], in [5] and in data set [6] was above 1000 nM in each case.

As to `COc1cccc(Nc2nc(Nc3cccc(NC(=O)C4CC4)c3)c3sccc3n2)c1`, the IC50 in data set [1], in data set [2], in data set [3], in data set [4], in data set [5] and in [6] was above 1000 nM each time.

As to `COc1cccc(Oc2cc(Nc3cccc(NC(=O)C4CC4)c3)ncn2)c1`, the IC50 was determined as 68.6 nM in [1]; 22.8 nM in [2]; 155 nM in data set [3]; 475 nM in [4]; 83.9 nM in [5]; 68.3 nM in data set [6].

Regarding `O=C(Nc1cccc(Nc2nc(Nc3cccc(C(F)(F)F)c3)nc3sccc23)c1)C1CC1`, the IC50 in data set [1], in data set [2], in data set [3], in [4], in [5] and in data set [6] was above 1000 nM throughout.
